Experimental data reported in US10512700B2, “Radiohalide-labeled targeted diagnostics and therapeutics” (Memorial Sloan Kettering Cancer Center, priority 2014, dated 2019).

Tested on: orthotopic U251 MG tumor-bearing mice
Assay: Autoradiography using C-2d
Assay type: in vivo, mouse
Procedure: U251 MG glioblastoma cells (5×10^4 in 2 μL of PBS) were orthotopically implanted in athymic nude mice, using a stereotaxic device, and the tumors allowed to grow for approximately 4 weeks. […] Additionally, healthy mice were also injected with 500 μCi C-2d. After 2 h of circulation time after the C-2d injection, the mice were sacrificed. Liver, tumor, muscle, and brain tissues were excised and embedded in O.C.T. compound (Sakura Finetek, Torrance, Calif.) and frozen at −20° C., and a series of 8 μm frozen sections was cut and mounted on microscope slides. To determine radiotracer distribution, digital autoradiography was performed by placing tissue sections in a film cassette against a phosphor image plate (BASMS-2325; Fujifilm) for 48 h at −20° C. Phosphor imaging plates were read at a pixel resolution of 25 μm with a Typhoon 7000IP plate reader (GE Healthcare, Piscataway, N.J.) (images not shown). After autoradiographic exposure, the same frozen sections were then used for […] staining. Areas of brain slides containing tumor tissue were identified using the H&E staining and then overlaid with the autoradiographic data (images not shown). Intensity of tumor areas and non-tumor areas were then quantified using ImageJ 1.47 u (see FIGS. 5A and 5B).

[1] = autoradiography, mice that received no olaparib

signal intensity in tumor tissue vs healthy brain tissue [1]: 15.7 fold
signal intensity in tumor tissue vs muscle tissue [1]: 6.2 fold
autoradiography signal, muscle (with olaparib treatment): 248±72 AU
autoradiography signal, tumor tissue (with olaparib treatment): 536±87 AU
autoradiography signal, muscle (without olaparib treatment): 192±20 AU
autoradiography signal, tumor tissue (without olaparib treatment): 1222±203 AU
Compound: O=C(c1ccc([131I])cc1)N1CCN(C(=O)c2cc(Cc3n[nH]c(=O)c4ccccc34)ccc2F)CC1 [C-2d (^131I)]
reduction in intensity of the autoradiography signal in tumor tissue (mice treated with olaparib): 65%
